Results from ChEMBL document CHEMBL1123417, “New structure-activity relationships of the quinolone antibacterials using the target enzyme. The development and application of a DNA gyrase assay” (J Med Chem, 1986).
≈ marks a conversion by molar mass, not a printed value.

Key:
[1] = biological target: DNA gyrase (Escherichia coli) (UniProt P0AES6+P0AES4)
[2] = tested on: Escherichia coli; experiment: Antibacterial activity against Escherichia coli (H560)
[3] = tested on: Escherichia coli; experiment: Antibacterial activity against Escherichia coli (vogel)
[4] = tested on: Klebsiella pneumoniae; experiment: Antibacterial activity against Klebsiella pneumonia (MGH-2)
[5] = tested on: Staphylococcus aureus; experiment: Antibacterial activity against Staphylococcus aureus (H228)
[6] = tested on: Pseudomonas aeruginosa; experiment: Antibacterial activity against Pseudomonas aeruginosa (UI-18)
[7] = tested on: Streptococcus pneumoniae; experiment: Antibacterial activity against Streptococcus pneumoniae (SV-1)

Row | gyrase cleavage conc [1] [µg/mL] | MIC [2] [µg/mL] | MIC [3] [µg/mL] | MIC [4] [µg/mL] | MIC [5] [µg/mL] | MIC [6] [µg/mL] | MIC [7] [µg/mL] | Structure (SMILES)
1 | 5 | 6.3 (≈ 16.3 µM) | 6.3 (≈ 16.3 µM) | > 100 | 0.1 (≈ 0.259 µM) | > 100 | 6.3 (≈ 16.3 µM) | CCn1cc(C(=O)O)c(=O)c2cc(F)c(N3CCC(C(F)(F)F)CC3)cc21
2 | 50 | 25 (≈ 85 µM) | 12.5 (≈ 42.5 µM) | 25 (≈ 85 µM) | > 100 | 50 (≈ 170 µM) | > 100 | CCn1cc(C(=O)O)c(=O)c2cc(F)c(NCCN)nc21
3 | 38 | 1.6 (≈ 5.93 µM) | 0.8 (≈ 2.97 µM) | 1.6 (≈ 5.93 µM) | 3.1 (≈ 11.5 µM) | 50 (≈ 185 µM) | 100 (≈ 371 µM) | CCn1cc(C(=O)O)c(=O)c2cc(F)c(Cl)cc21
4 | 100 | 3.1 (≈ 9.74 µM) | 6.3 (≈ 19.8 µM) | 25 (≈ 78.5 µM) | 50 (≈ 157 µM) | 25 (≈ 78.5 µM) | 50 (≈ 157 µM) | CCn1cc(C(=O)O)c(=O)c2c(N)nc(N3CCNCC3)nc21
5 | 50 | 3.1 (≈ 7.66 µM) | 6.3 (≈ 15.6 µM) | 6.3 (≈ 15.6 µM) | 12.5 (≈ 30.9 µM) | 12.5 (≈ 30.9 µM) | 25 (≈ 61.8 µM) | CCn1cc(C(=O)O)c(=O)c2cc(F)c(N3CCN(CCCN(C)C)CC3)cc21
6 | 6.3 | 0.8 (≈ 2.21 µM) | 3.1 (≈ 8.58 µM) | 6.3 (≈ 17.4 µM) | 50 (≈ 138 µM) | 25 (≈ 69.2 µM) | 50 (≈ 138 µM) | CCn1cc(C(=O)O)c(=O)c2cc(F)c(N3CCN(C(C)=N)CC3)nc21
7 | 2.5 | 0.1 (≈ 0.285 µM) | 0.2 (≈ 0.569 µM) | 0.4 (≈ 1.14 µM) | 0.4 (≈ 1.14 µM) | 0.8 (≈ 2.28 µM) | 3.1 (≈ 8.82 µM) | CCn1cc(C(=O)O)c(=O)c2cc(F)c(N3CCN(C)CC3)c(F)c21
8 | 100 | 12.5 (≈ 36.4 µM) | 12.5 (≈ 36.4 µM) | 12.5 (≈ 36.4 µM) | 12.5 (≈ 36.4 µM) | > 100 | 100 (≈ 291 µM) | CCn1cc(C(=O)O)c(=O)c2ccc(/C=N/N3CCN(C)CC3)nc21
9 | > 100 | > 100 | > 100 | > 100 | > 100 | > 100 | > 100 | CCn1cc(C(=O)O)c(=O)c2ccc(/C=C/N3CCN(C)CC3)nc21
10 | > 100 | 50 (≈ 191 µM) | 12.5 (≈ 47.7 µM) | 12.5 (≈ 47.7 µM) | > 100 | > 100 | 100 (≈ 381 µM) | CCn1cc(C(=O)O)c(=O)c2cc([N+](=O)[O-])ccc21
11 | 5 | – | – | – | – | – | – | CC1COc2c(N3CCN(C)CC3)c(F)cc3c(=O)c(C(=O)O)cn1c23 (stereo unspecified)
12 | 18 | 1.6 (≈ 4.74 µM) | 1.6 (≈ 4.74 µM) | 3.1 (≈ 9.19 µM) | 0.2 (≈ 0.593 µM) | 6.3 (≈ 18.7 µM) | 50 (≈ 148 µM) | CCn1cc(C(=O)O)c(=O)c2cc(F)c(N3CCSCC3)nc21
13 | 50 | 25 (≈ 106 µM) | 0.8 (≈ 3.4 µM) | 1.6 (≈ 6.8 µM) | > 100 | > 100 | > 100 | CCn1cc(C(=O)O)c(=O)c2cc(F)ccc21
14 | 5 | 0.1 (≈ 0.297 µM) | 0.1 (≈ 0.297 µM) | 0.2 (≈ 0.595 µM) | 0.006 (≈ 0.0178 µM) | 0.8 (≈ 2.38 µM) | 12.5 (≈ 37.2 µM) | CCn1cc(C(=O)O)c(=O)c2cc(F)c(N3CCSCC3)cc21
15 | 100 | > 100 | 12.5 (≈ 47.8 µM) | 12.5 (≈ 47.8 µM) | 50 (≈ 191 µM) | 100 (≈ 383 µM) | 100 (≈ 383 µM) | CCn1cc(C(=O)O)c(=O)c2ccc(/C=N/O)nc21
16 | 50 | > 100 | 6.3 (≈ 22.6 µM) | 12.5 (≈ 44.8 µM) | 100 (≈ 358 µM) | 100 (≈ 358 µM) | 100 (≈ 358 µM) | CCn1cc(C(=O)O)c(=O)c2cc(F)c(/C=N/O)nc21
